Test results from paper PMC4958397, “Synthesis, antibacterial and antiproliferative potential of some new 1-pyridinecarbonyl-4-substituted thiosemicarbazide derivatives” (Medicinal Chemistry Research, 2016).

How the values were obtained:
[1] = system: pathogenic microaerobic bacteria (causing dental caries); test: Broth microdilution MIC, summary in text; assay type: cell-based; conditions: range over compounds and strains; read-out: MIC against pathogenic microaerobic bacteria
Text: (§1) Panel reference strains of bacteria from the American Type Culture Collection or Polish Collection of Microorganisms, including aerobic Gram-positive bacteria: Staphylococcus aureus ATCC 25923 and Staphylococcus epidermidis ATCC 12228, and aerobic Gram-negative bacteria: Escherichia coli ATCC 25922 and Pseudomonas aeruginosa ATCC 9027, as well as microaerobic Gram-positive bacteria: Lactobacillus spp., Lactobacillus acidophilus PCM 2105, Streptococcus mutans PCM 2502 and Streptococcus sanguinis PCM 2335, were used. Microbial suspensions with an optical density of 0.5 McFarland standard at 1.5 × 10^8 CFU/mL (CFU: colony forming unit) were prepared in sterile 0.9 % NaCl. Mueller–Hinton (M–H) broth and M–H agar (Oxoid Ltd., England) for aerobic strains, and MRS Broth Lactobacillus, MRS Agar Lactobacillus (BioMaxima S.A., Poland), BHI Broth and BHI agar (BioMaxima S.A., Poland) for microaerobic strains were used in the microbial tests.
(§2) A broth microdilution method was used to evaluate the minimum inhibition concentration (MIC) according to the CLSI document (CLSI performance standards for antimicrobial susceptibility testing, 2008, Eighteenth International Supplement, CLSI document M7-MIC, Clinical Laboratory Standards Institute, Wayne) with some modifications. […] A serial doubling dilution of the compounds was prepared in 96-well plates (200 μL per well). A suitable medium (M-H Broth, MRS Broth Lactobacillus, BHI Broth) was used as a diluent. The final concentrations of derivatives were 1000–0.015 μg/mL. Finally, 2 μL of inoculum of the tested bacterial strain (1.5 × 10^8 CFU/mL) was added to each well. The tests were performed either at 36 °C for 18 h (aerobic strains) or at 40 h (microaerobic strains). After incubation, the panel was digitally analyzed at 600 nm using the microplate reader Bio Tech Synergy (USA) with a dedicated software system. The growth intensity in each well was compared with the negative and positive controls.

Lactobacillus spp. = test: Broth microdilution MIC; assay type: cell-based
Text: as §1, §2

## O=C(NNC(=S)Nc1ccccc1Cl)c1ccccn1 [Compound 2, 4-(2-Chlorophenyl)-1-(pyridin-2-yl)carbonylthiosemicarbazide]
[1]
  MIC: 7.81 to 500 µg/mL

## O=C(NNC(=S)Nc1ccc(Cl)cc1Cl)c1ccccn1 [Compound 4, 4-(2,4-Dichlorophenyl)-1-(pyridin-2-yl)carbonylthiosemicarbazide]
Lactobacillus spp.; Lactobacillus, read-out: Minimum inhibitory concentration (MIC), Lactobacillus spp.
  MIC: 31.2 µg/mL
[1]
  MIC: 7.81 to 500 µg/mL

## CSc1ccc(NC(=S)NNC(=O)c2cccnc2)cc1 [Compound 6, 4-(4-Methylthiophenyl)-1-(pyridin-3-yl)carbonylthiosemicarbazide]
Lactobacillus spp.
  Minimum inhibitory concentration (MIC), Lactobacillus spp.: did not limit the growth
